Test results published in publication PMC4861933, “Structural and biochemical characterisation of Archaeoglobus fulgidus esterase reveals a bound CoA molecule in the vicinity of the active site” (Scientific Reports, 2016).

How the values were obtained:
AF-Est2 [1] = molecular target: T1, AF-Est2 (Archaeoglobus fulgidus, UniProt O28735); test: p-nitrophenol release at […] nm, microplate, Michaelis-Menten fit; format: biochemical; details: 50 mM Tris-HCl pH 7.5, 30 °C; enzyme carries co-purified CoA
T1 construct: gene AF_1537; full-length, no stop codon, C-terminal 6xHis tag (pET24d, plasmid pWUR365), E. coli BL21-CodonPlus(DE3)-RIPL; tag kept
T1 sequence (O28735 entry or part of it): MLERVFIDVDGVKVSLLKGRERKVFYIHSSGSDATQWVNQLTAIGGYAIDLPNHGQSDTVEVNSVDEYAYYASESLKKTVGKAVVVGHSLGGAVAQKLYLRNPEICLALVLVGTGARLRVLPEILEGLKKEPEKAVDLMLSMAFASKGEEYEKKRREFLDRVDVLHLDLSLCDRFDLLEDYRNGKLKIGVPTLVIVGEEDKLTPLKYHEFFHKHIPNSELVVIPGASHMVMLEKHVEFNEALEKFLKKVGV

AF-Est2 [2] = molecular target: T1, AF-Est2; test: X-ray crystal structure, […] Å; format: binding; details: co-purified from expression host, not added; full occupancy; groove near active site, pantetheine in alcohol pocket
AF-Est2 [3] = molecular target: T1, AF-Est2; test: phenol red pH-indicator assay at […] nm, Michaelis-Menten fit; format: biochemical; details: 1 mM HEPES pH 8.0; kcat is that at 70 °C (one KM printed for 70, 50 and 30 °C)

| Km (AF-Est2 [1]) [µM] | Structure (SMILES) | further results |
| --- | --- | --- |
| 19 ± 1 | CCCCC(=O)Oc1ccc([N+](=O)[O-])cc1 [C5, pNP-valerate] | – |
| 92 ± 3 | CCCC(=O)Oc1ccc([N+](=O)[O-])cc1 [C4, pNP-butyrate] | – |
| 620 ± 10 | CC(=O)Oc1ccc([N+](=O)[O-])cc1 [C2, pNP-acetate] | – |
| – | CC(C)(COP(=O)(O)OP(=O)(O)OC[C@H]1O[C@@H](n2cnc3c(N)ncnc32)[C@H](O)[C@@H]1OP(=O)(O)O)[C@@H](O)C(=O)NCCC(=O)NCCS [CoA] | X-ray crystal structure, 1.4 Å (AF-Est2 [2]): confirmed the full occupancy of this CoA ligand in the AF-Est2 structure |
| – | COC(=O)c1ccc(C)cc1 [methyl p-toluate] | Km (AF-Est2 [3]): 1.5 ± 0.1 mM |
| 254 ± 8 | CCC(=O)Oc1ccc([N+](=O)[O-])cc1 [C3, pNP-propionate] | – |
| 120 ± 10 | CCCCCCCC(=O)Oc1ccc([N+](=O)[O-])cc1 [C8, pNP-caprylate] | – |
